Results taken from ChEMBL document CHEMBL1141898, “Halogenated and isosteric cytisine derivatives with increased affinity and functional activity at nicotinic acetylcholine receptors” (Bioorg Med Chem Lett, 2005).

How the values were obtained:
[1] = biological target: Neuronal acetylcholine receptor; alpha3/beta4 (Rattus norvegicus, UniProt P04757+P12392); experiment: Effective concentration in KXalpha-3-beta-4R2 cells expressing rat nicotinic acetylcholine receptor alpha3-beta4 subunits; format: functional, cell-based
[2] = biological target: T1, Neuronal acetylcholine receptor; alpha3/beta4 (Rattus norvegicus) (UniProt P04757+P12392); experiment: Percentage efficacy in KXalpha-3-beta-4R2 cells expressing rat nicotinic acetylcholine receptor alpha-3 beta4 subunits relative to (1)-epibatidine; format: functional, cell-based
[3] = biological target: T2, Acetylcholine receptor; alpha1/beta1/delta/gamma (Homo sapiens, UniProt P02708+P07510+P11230+Q07001); experiment: Change in membrane potential in TE-671 cells expressing acetylcholine neuromuscular receptors; format: functional, cell-based
[4] = biological target: T1, Neuronal acetylcholine receptor; alpha3/beta4 (Rattus norvegicus); experiment: Binding affinity (Ki) for rat nicotinic acetylcholine receptor alpha3-beta4 subunits versus 0.5 nM [3H](1)-epibatidine; format: protein-complex assay
[5] = biological target: Neuronal acetylcholine receptor; alpha4/beta2 (Rattus norvegicus) (UniProt P09483+P12390); experiment: Binding affinity (Ki) for rat brain nicotinic receptors […] alpha-4 and beta2 subunits versus 0.5 nM [3H](1)-epibatidine
[6] = biological target: T2, Acetylcholine receptor; alpha1/beta1/delta/gamma; experiment: Percentage efficacy in TE671 cells expressing acetylcholine neuromuscular receptor as change in membrane potential; format: functional, cell-based; conditions: TE-671
[7] = biological target: T3, Neuronal acetylcholine receptor; alpha4/beta2 (Homo sapiens, UniProt P17787+P43681); experiment: Percentage efficacy in K-177 cells expressing acetylcholine central neuronal receptor type alpha-4 beta2 subunits as change in membrane potential; format: functional, cell-based
[8] = biological target: T3, Neuronal acetylcholine receptor; alpha4/beta2; experiment: Change in membrane potential in K-177 cells expressing acetylcholine central neuronal receptor alpha4-beta2 subunits; format: functional, cell-based

Chain of Neuronal acetylcholine receptor; alpha3/beta4 (P04757 whole entry): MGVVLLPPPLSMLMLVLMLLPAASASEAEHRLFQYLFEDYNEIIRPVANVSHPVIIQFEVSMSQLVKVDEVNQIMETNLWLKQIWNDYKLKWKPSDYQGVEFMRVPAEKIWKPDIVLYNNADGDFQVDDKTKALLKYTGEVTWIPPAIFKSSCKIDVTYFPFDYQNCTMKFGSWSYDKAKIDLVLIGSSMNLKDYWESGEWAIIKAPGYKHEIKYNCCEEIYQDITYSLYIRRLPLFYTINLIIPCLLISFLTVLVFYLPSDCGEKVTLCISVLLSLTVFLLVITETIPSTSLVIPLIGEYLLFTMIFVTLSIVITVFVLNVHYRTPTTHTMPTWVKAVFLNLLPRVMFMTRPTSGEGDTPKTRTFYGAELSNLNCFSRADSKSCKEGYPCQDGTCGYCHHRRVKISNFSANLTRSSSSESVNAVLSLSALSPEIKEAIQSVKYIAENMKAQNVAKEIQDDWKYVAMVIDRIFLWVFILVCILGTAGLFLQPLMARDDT
Chain of Neuronal acetylcholine receptor; alpha3/beta4 (P12392 whole entry): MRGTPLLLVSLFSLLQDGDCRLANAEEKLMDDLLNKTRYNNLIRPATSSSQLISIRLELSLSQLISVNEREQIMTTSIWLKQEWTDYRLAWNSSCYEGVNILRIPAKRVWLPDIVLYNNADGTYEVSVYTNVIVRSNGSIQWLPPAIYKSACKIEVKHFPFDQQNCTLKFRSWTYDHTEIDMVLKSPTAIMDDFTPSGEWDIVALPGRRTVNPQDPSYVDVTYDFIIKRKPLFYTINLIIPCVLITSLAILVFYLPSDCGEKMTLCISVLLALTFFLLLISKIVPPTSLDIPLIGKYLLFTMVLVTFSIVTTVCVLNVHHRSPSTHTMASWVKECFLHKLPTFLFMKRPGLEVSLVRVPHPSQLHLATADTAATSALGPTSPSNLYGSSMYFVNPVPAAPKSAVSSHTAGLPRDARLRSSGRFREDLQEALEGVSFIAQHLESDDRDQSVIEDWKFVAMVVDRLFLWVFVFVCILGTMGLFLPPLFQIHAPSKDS
T2 sequence (P02708 whole entry): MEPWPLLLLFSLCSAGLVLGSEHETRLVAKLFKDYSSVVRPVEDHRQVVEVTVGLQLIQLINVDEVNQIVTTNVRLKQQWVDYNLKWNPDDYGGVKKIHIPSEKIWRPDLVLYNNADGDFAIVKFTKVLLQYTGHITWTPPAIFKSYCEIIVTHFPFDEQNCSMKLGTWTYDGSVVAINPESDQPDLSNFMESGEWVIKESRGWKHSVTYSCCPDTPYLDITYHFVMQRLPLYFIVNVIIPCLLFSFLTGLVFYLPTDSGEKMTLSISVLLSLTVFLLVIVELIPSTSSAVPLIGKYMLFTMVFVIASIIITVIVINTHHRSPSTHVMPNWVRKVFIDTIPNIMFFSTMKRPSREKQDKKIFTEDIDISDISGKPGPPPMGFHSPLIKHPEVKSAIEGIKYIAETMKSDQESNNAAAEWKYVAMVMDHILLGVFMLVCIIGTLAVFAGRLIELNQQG
T2 sequence (P07510 whole entry): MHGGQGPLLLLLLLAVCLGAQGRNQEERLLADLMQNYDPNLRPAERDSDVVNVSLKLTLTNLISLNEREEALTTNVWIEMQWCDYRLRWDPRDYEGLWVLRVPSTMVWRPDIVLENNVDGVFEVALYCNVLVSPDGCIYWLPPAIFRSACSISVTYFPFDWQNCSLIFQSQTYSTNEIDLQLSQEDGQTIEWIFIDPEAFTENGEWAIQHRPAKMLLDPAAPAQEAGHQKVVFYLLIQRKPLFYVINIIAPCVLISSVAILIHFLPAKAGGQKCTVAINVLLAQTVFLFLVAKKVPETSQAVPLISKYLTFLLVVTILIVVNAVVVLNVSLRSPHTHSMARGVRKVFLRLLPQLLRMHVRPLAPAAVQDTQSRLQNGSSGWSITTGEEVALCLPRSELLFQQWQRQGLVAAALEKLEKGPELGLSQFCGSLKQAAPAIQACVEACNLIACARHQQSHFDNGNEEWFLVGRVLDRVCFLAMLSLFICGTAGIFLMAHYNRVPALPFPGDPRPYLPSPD
T2 sequence (P11230 whole entry): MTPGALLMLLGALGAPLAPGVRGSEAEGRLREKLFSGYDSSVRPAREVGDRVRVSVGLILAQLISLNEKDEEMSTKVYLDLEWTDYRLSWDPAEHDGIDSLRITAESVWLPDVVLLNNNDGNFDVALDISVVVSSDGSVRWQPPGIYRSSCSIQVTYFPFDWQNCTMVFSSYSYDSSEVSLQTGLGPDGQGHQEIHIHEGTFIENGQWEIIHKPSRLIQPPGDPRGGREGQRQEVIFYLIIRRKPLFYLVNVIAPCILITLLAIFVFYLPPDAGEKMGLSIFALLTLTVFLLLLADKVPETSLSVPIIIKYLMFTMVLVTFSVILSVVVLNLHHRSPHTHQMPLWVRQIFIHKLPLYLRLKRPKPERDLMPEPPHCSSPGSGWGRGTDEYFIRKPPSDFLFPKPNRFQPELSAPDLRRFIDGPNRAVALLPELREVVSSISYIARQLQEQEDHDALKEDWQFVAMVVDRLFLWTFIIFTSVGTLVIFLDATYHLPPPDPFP
T2 sequence (Q07001 whole entry): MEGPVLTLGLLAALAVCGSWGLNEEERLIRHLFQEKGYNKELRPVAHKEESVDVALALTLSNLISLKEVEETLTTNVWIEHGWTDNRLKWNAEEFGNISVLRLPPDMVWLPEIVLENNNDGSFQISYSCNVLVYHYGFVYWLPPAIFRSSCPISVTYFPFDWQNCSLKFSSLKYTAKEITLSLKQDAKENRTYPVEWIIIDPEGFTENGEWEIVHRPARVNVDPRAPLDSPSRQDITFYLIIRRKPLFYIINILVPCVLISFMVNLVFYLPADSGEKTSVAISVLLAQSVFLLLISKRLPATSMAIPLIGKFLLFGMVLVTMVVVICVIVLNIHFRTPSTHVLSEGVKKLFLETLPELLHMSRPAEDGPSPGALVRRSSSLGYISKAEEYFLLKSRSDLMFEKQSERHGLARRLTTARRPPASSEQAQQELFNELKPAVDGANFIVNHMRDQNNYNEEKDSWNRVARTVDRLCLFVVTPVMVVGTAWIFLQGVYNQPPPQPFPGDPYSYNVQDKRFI
T3 sequence (P17787 whole entry): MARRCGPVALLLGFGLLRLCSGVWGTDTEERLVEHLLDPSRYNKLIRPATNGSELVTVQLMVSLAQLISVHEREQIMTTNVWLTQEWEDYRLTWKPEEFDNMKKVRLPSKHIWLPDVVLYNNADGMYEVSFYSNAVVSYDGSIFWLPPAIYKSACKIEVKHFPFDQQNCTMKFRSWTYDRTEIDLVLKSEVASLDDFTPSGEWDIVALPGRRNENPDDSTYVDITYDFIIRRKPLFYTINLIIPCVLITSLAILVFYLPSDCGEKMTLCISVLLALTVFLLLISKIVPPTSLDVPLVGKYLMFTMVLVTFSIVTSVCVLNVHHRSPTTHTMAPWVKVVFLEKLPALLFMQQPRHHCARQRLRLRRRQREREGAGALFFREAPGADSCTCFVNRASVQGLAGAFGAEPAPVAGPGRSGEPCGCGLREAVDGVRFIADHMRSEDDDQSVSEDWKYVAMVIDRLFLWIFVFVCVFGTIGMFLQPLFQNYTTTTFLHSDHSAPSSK
T3 sequence (P43681 whole entry): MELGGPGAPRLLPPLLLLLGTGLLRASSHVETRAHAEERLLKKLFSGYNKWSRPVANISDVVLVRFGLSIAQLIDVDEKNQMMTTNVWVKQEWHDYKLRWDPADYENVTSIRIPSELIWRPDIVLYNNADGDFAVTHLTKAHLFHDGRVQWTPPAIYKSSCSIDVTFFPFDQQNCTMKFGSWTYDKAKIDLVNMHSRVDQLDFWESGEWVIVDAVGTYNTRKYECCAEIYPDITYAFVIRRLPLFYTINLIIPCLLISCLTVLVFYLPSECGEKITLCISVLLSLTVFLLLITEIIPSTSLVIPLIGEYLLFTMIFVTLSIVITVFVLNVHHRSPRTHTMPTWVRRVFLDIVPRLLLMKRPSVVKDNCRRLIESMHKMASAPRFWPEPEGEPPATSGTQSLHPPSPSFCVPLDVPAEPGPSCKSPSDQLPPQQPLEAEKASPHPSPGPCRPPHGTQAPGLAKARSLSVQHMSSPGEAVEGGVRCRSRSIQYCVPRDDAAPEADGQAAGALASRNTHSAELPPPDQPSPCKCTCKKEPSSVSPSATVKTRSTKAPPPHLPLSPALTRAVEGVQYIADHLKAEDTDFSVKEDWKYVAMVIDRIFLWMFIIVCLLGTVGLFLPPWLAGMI

Q: With O=c1c(Cl)cc(Cl)c2n1CC1CNCC2C1 (configuration not stated) as the molecule, how does the EC50 [1] read?
A: > 100 nM

Q: What about the Efficacy [2] of the same molecule?
A: < 10%

Q: What about the EC50 [3] of the same molecule?
A: > 100 nM

Q: What about the Affinity [4] of the same molecule?
A: 39000 nM

Q: What about the Affinity [5] of the same molecule?
A: 2.5 nM

Q: And the Efficacy [6]?
A: 23%

Q: And the Efficacy [7]?
A: 20%

Q: What about the EC50 [8] of the same molecule?
A: > 100 nM

Q: What does the source list for O=c1cccc2n1C[C@@H]1CNC[C@H]2C1 [CYTISINICLINE]?
A: EC50 [1]: 25 nM; Efficacy [2]: 62%; EC50 [3]: 11 nM; Affinity [4]: 220 nM; Affinity [5]: 0.124 nM; Efficacy [6]: 55%; Efficacy [7]: 59%; EC50 [8]: 0.42 nM

Q: Which results are given for Clc1ccc(C2CC3CCC2N3)cn1 (configuration not stated) [EPIBATIDINE]?
A: EC50 [3]: 0.053 nM; Affinity [4]: 0.51 nM; Affinity [5]: 0.0072 nM; Efficacy [6]: 100%; Efficacy [7]: 100%

Q: How did the EC50 [1] turn out when O=c1c(I)cc(I)c2n1CC1CNCC2C1 (configuration not stated) was run?
A: > 100000 nM

Q: What about the Efficacy [2] of the same molecule?
A: < 10%

Q: What about the EC50 [3] of the same molecule?
A: > 100 nM

Q: What about the Affinity [4] of the same molecule?
A: 4200 nM

Q: What about the Affinity [5] of the same molecule?
A: 0.52 nM

Q: And the Efficacy [6]?
A: < 10%

Q: And the Efficacy [7]?
A: 42%

Q: And the EC50 [8]?
A: 42 nM

Q: How did the EC50 [1] turn out when O=c1ccc(Br)c2n1CC1CNCC2C1 (configuration not stated) was run?
A: 39 nM

Q: What about the EC50 [3] of the same molecule?
A: > 100 nM

Q: What about the Affinity [4] of the same molecule?
A: 380 nM

Q: What about the Affinity [5] of the same molecule?
A: 0.308 nM

Q: And the Efficacy [6]?
A: < 10%

Q: And the Efficacy [7]?
A: 70%

Q: What about the EC50 [8] of the same molecule?
A: 1.1 nM

Q: For C[N+]1(C)CC2CC(C1)c1cccc(=O)n1C2 (configuration not stated), which EC50 [1] is on record?
A: > 100 nM

Q: And the Efficacy [2]?
A: 29%

Q: What about the EC50 [3] of the same molecule?
A: 37 nM

Q: And the Affinity [4]?
A: 1500 nM

Q: What about the Affinity [5] of the same molecule?
A: 0.238 nM

Q: And the Efficacy [6]?
A: 60%

Q: What about the Efficacy [7] of the same molecule?
A: 70%

Q: What about the EC50 [8] of the same molecule?
A: 41 nM

Q: Which results are given for S=c1cccc2n1CC1CNCC2C1 (configuration not stated)?
A: EC50 [1]: > 100 nM; Efficacy [2]: 10%; EC50 [3]: > 100 nM; Affinity [4]: 27000 nM; Affinity [5]: 0.832 nM; Efficacy [6]: < 10%; Efficacy [7]: 28%; EC50 [8]: 2.2 nM

Q: Which EC50 [1] does the source give for O=c1c(I)ccc2n1CC1CNCC2C1 (configuration not stated) here?
A: 0.55 nM

Q: And the Efficacy [2]?
A: 78%

Q: And the EC50 [3]?
A: 45 nM

Q: What about the Affinity [4] of the same molecule?
A: 7.4 nM

Q: What about the Affinity [5] of the same molecule?
A: 0.017 nM

Q: And the Efficacy [6]?
A: 46%

Q: And the Efficacy [7]?
A: 92%

Q: What about the EC50 [8] of the same molecule?
A: 0.036 nM

Q: How did the EC50 [1] turn out when O=c1c(Cl)ccc2n1CC1CNCC2C1 (configuration not stated) was run?
A: 5.1 nM

Q: And the Efficacy [2]?
A: 71%

Q: What about the EC50 [3] of the same molecule?
A: 28 nM

Q: What about the Affinity [4] of the same molecule?
A: 18 nM

Q: And the Affinity [5]?
A: 0.022 nM

Q: What about the Efficacy [6] of the same molecule?
A: 53%

Q: What about the Efficacy [7] of the same molecule?
A: 72%

Q: And the EC50 [8]?
A: 0.11 nM

Q: For O=c1c(Br)ccc2n1CC1CNCC2C1 (configuration not stated), which EC50 [1] is on record?
A: 0.88 nM

Q: And the Efficacy [2]?
A: 74%

Q: And the EC50 [3]?
A: 31 nM

Q: What about the Affinity [4] of the same molecule?
A: 7.5 nM

Q: What about the Affinity [5] of the same molecule?
A: 0.01 nM

Q: And the Efficacy [6]?
A: 59%

Q: And the Efficacy [7]?
A: 85%

Q: What about the EC50 [8] of the same molecule?
A: 0.05 nM

Q: For O=c1ccc(Cl)c2n1CC1CNCC2C1 (configuration not stated), which EC50 [1] is on record?
A: > 100 nM

Q: What about the Efficacy [2] of the same molecule?
A: < 10%

Q: What about the EC50 [3] of the same molecule?
A: > 100 nM

Q: And the Affinity [4]?
A: 3900 nM

Q: What about the Affinity [5] of the same molecule?
A: 2.5 nM

Q: What about the Efficacy [6] of the same molecule?
A: < 10%

Q: And the Efficacy [7]?
A: 58%

Q: What about the EC50 [8] of the same molecule?
A: 4 nM

Q: For O=c1c(Br)cc(Br)c2n1CC1CNCC2C1 (configuration not stated), which EC50 [1] is on record?
A: > 100 nM

Q: And the Efficacy [2]?
A: < 10%

Q: What about the EC50 [3] of the same molecule?
A: > 100 nM

Q: And the Affinity [4]?
A: 45000 nM

Q: What about the Affinity [5] of the same molecule?
A: 10.8 nM

Q: And the Efficacy [6]?
A: < 10%

Q: And the Efficacy [7]?
A: 23%

Q: And the EC50 [8]?
A: > 100 nM
